{"source": "paper PMC7795518", "about": "“Insights into the Interaction of LVV-Hemorphin-7 with Angiotensin II Type 1 Receptor” (International Journal of Molecular Sciences, 2020)", "key": {"[1]": {"tested_on": "AT1R", "settings": "HEK293 cells; Gαq/inositol phosphate pathway and ERK1/2 phosphorylation; cited from earlier work", "description": "Hemorphins are endogenous hemoglobin-derived peptides implicated in numerous physiological and pathophysiological situations including spatial learning, inflammation, analgesia, and transient hypotension. The molecular targets of hemorphins comprise the cell-surface G protein-coupled receptor (GPCR) members such as the opioid receptors and also the membrane AngIV receptor [3, 8]. Moreover, hemorphins are also known for their inhibitory effects on the angiotensin-converting enzyme (ACE), a key enzyme in the renin–angiotensin system (RAS). ..."}, "[2]": {"biological_target": "T1, AngII type 1 receptor (AT1R) (Homo sapiens, UniProt P30556)", "T1 construct": "host or cells: HEK293FT", "T1 sequence (P30556 1-359)": "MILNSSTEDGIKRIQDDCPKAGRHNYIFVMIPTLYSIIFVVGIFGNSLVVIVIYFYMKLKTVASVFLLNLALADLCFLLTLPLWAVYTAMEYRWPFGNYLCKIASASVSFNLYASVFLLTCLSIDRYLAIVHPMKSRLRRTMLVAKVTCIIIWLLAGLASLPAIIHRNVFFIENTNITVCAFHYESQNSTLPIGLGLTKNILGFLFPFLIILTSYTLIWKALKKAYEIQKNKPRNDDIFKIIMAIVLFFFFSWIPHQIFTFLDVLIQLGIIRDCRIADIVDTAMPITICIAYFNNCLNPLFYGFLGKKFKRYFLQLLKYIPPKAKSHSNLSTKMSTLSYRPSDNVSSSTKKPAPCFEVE", "test": "Real-time NanoBRET kinetics of BODIPY-AngII binding to Nluc-AT1R in live HEK293FT cells", "settings": "10 μM LVV-H7, 30 min pre-incubation, 100 nM BODIPY-AngII", "experimental": "(§1) The NanoLuc-AT1R coding plasmid (Promega, Madison, WI, USA) was used for its transient expression in HEK293FT cells as previously reported.\n(§2) Human embryonic kidney (HEK) 293FT cells (Thermo Fisher Scientific) were cultured and maintained at 37 °C, 5% CO2 in complete medium (Dulbecco’s modified Eagle’s medium (DMEM) containing 0.3 mg/mL glutamine, 100 IU/mL penicillin, and 100 μg/mL streptomycin) supplemented with 10% fetal calf serum (FCS) (Bovogen Biologicals, Victoria, Australia) and 400 μg/mL Geneticin (Thermo Fisher Scientific). Transient transfections were carried out 24 h after seeding 600,000 cells/well of a 6-well plate. FuGENE 6 (Promega) transfection reagent was used according to the manufacturer’s instructions. Cells were harvested with 0.05% Trypsin-EDTA 24 h after transfection and seeded into poly-L-lysine (Sigma Aldrich) coated white 96-well plates (Greiner Bio-One, Frickenhausen, Germany) at 80,000 cells/well in phenol red-free DMEM containing 25 mM HEPES, 0.3 mg/mL glutamine, 100 IU/mL penicillin, and 100 μg/mL streptomycin supplemented with 5% FCS.\nThe NanoBRET ratios were determined by dividing the >610 nm (longpass) emission by 450 nm (80-nm bandpass) emission and subtracting the background ratio. Then, the percentage of NanoBRET signals were calculated as described in figure legends. […]"}, "[3]": {"biological_target": "T1, AngII type 1 receptor (AT1R)", "test": "Saturation NanoBRET binding of BODIPY-AngII to Nluc-AT1R in live HEK293FT cells", "experimental": "Figure 1 Saturation binding of BODIPY-angiotensin II (AngII) to AngII type 1 receptor (AT1R) using NanoBRET assay in live HEK293FT cells. HEK293FT cells transiently expressing Nluc-AT1R (NanoBRET donor) were first treated with 10 μM LVV-H7 or vehicle (A) or 1 μM olmesartan medoxomil or vehicle (B) for 20 min at 37 °C. […] Data are mean ± SEM of four (A) or three (B) independent experiments performed in duplicate.\n(A) HEK293FT cells transiently expressing Nluc-AT1R (NanoBRET donor) were first treated with 1 μM olmesartan medoxomil or vehicle and then immediately treated with 0, 10, or 100 μM LVV-H7. […] Specific binding curves were generated by subtracting olmesartan medoxomil-treated wells from vehicle-treated wells for each concentration of LVV-H7.\nas §1, §2\nThe NanoLuc substrate furimazine (Promega) was then added to a final concentration of 10 μM and light emission was measured at 37 °C using the filters 450 nm (80-nm bandpass) and >610 nm (longpass) on the LUMIstar or CLARIOstar multilabel plate reader (BMG Labtech (Australia), Mornington, VIC, Australia).\nThe NanoBRET ratios were determined by dividing the >610 nm (longpass) emission by 450 nm (80-nm bandpass) emission and subtracting the background ratio. Then, the percentage of NanoBRET signals were calculated as described in figure legends. The saturation and kinetic curves were fitted with the appropriate nonlinear regression equations using GraphPad Prism software (San Diego, CA, USA). Statistical analyses were performed with paired one-way ANOVA or paired t-tests as appropriate to determine statistical significance between the different conditions. **** p-value < 0.0001, *** p-value < 0.001, ** p-value < 0.01, * p-value < 0.05, and ns p-value > 0.05."}, "[4]": {"tested_on": "dopamine 1 receptor", "settings": "allosteric modulator binding preferentially to ICL2; cited from earlier work", "description": "Positive allosteric binding sites of GPCRs have been identified in the past. However, recent studies have […] the potential of positive allosteric modulators in multiple GPCRs using in vitro and in silico approaches. Allosteric binding sites located near the extracellular (EC) face and IC face in different GPCRs have been documented. Allosteric sites near the orthosteric site in GPCRs often block the entry of other ligands. However, this would not be a problem for allosteric ligands that target the IC region. DETQ, an al ..."}}}
{"molecule": "LVVYPWTQRF [LVV-H7, LVV-hemorphin-7, decapeptide LVV-hemorphin-7 ([…]) (New England Peptide)]", "values": [{"measurement": "modulation of AT1R activity and downstream signaling", "setting": "[1]", "value": "positive modulation of its activity and downstream signaling pathways in HEK293 cells"}, {"measurement": "effect on maximal binding of BODIPY-AngII (kinetics)", "setting": "[2]; n = 4, p < 0.05", "value": "significantly increased the maximal binding of BODIPY-AngII"}, {"measurement": "effect on binding rate (T1/2) of BODIPY-AngII", "setting": "[2]; n = 4, p > 0.05", "value": "no effect on the binding rate"}, {"measurement": "competition for binding with BODIPY-AngII", "setting": "[3]; 10 μM LVV-H7, 20 min at 37 °C before BODIPY-AngII 40 min, four independent experiments in duplicate", "value": "did not compete for binding with BODIPY-AngII"}, {"measurement": "effect on maximum binding (Bmax) of BODIPY-AngII", "setting": "[3]; LVV-H7 0, 10, 100 μM, saturation binding, n = 6", "value": "without altering the maximum binding"}, {"measurement": "decrease of AngII's kD", "setting": "[3]; NanoBRET in HEK293FT cells, effect of LVV-H7", "value": 2.6, "unit": "fold"}, {"measurement": "effect on binding of BODIPY-AngII", "setting": "[3]; increasing LVV-H7 (0, 10, 100 μM), n = 6", "value": "significantly potentiated the binding of BODIPY-AngII"}]}
{"molecule": "C[C@H]1c2cccc(C(C)(C)O)c2C[C@H](CO)N1C(=O)Cc1c(Cl)cccc1Cl", "note": "[DETQ]", "values": [{"measurement": "effect on potency of dopamine", "setting": "[4]", "value": "significantly enhanced the potency of dopamine"}]}
{"molecule": "CCCc1nc(C(C)(C)O)c(C(=O)OCc2oc(=O)oc2C)n1Cc1ccc(-c2ccccc2-c2nnn[nH]2)cc1", "note": "[olmesartan medoxomil, reference compound]", "values": [{"measurement": "displacement of BODIPY-AngII binding", "setting": "[3]; 1 μM olmesartan medoxomil, 20 min at 37 °C before BODIPY-AngII 40 min, three independent experiments in duplicate", "value": "~ 75%"}]}
